Like-named read-outs stand apart in the source and are kept apart here.
How the values were obtained:
[1] = biological target: T1, RORγt (Homo sapiens, UniProt P51449); assay: Jurkat reporter test (human IL-17 ROR response element luciferase, RORγt vector); format: cell-based; details: read-out: Luminescence level inhibitory rate at test compound 3 μM (%)
T1 sequence (P51449 1-497 isoform P51449-2): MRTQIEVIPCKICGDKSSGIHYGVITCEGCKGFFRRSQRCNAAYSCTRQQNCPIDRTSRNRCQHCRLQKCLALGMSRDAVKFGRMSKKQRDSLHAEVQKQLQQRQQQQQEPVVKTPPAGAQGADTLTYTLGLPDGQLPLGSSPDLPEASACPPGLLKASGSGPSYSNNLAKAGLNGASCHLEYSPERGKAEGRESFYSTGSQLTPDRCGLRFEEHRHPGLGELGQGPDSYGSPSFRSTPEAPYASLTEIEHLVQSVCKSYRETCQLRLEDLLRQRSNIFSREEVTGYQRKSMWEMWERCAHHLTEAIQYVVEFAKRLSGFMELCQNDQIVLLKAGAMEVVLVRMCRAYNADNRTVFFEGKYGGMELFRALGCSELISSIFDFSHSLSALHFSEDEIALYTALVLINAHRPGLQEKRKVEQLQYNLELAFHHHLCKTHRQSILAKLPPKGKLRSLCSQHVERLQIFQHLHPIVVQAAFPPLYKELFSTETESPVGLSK
Protocol: The Jurkat cells used for the reporter test were cultured in a culture medium (RPMI (Invitrogen), 10% FCS (AusGeneX), 100 U/mL penicillin, 100 μg/mL streptomycin). On the day of the test, 4×10^7 cells were recovered by a centrifugal operation (1000 rpm, 5 min.) and suspended in PBS (phosphate buffered saline) (Invitrogen). Thereafter, the cells were recovered again by a centrifugal operation, and suspended in 2 mL of R buffer (NEON transfection kit, Invitrogen). […] Gene transfer was performed by Electroporation apparatus (NEON, Invitrogen) under the conditions of pulse voltage 1350 V, interval 10 milliseconds, number of times 3. The cells after gene transfer were suspended in 40 mL of a reaction medium (RPMI, 10% Lipid reduced FCS (HyClone), 10 mM HEPES (pH 7.5), 100 U/mL penicillin, 100 μg/mL streptomycin, 5 μM lovastatin), and plated in a 96 well plate by 90 μL. A test compound diluted with the reaction medium was added by 10 μL, and the cells were cultured overnight in an incubator. Bright-Glo (Promega) was added by 100 μL, and the mixture was stirred at room temperature for 10 min, and the luminescence level was measured by Envision (PerkinElmer).

[2] = biological target: T1, RORγt; assay: Cofactor recruitment test (Alpha Screen, biotinylated SRC-1 peptide); format: biochemical; details: read-out: Signal value inhibitory rate at test compound 1 μM (%)
Protocol: Cofactor Recruitment Test
Cofactor recruitment test was performed by Alpha Screen (Histidine Detection Kit, PerkinElmer) method. First, a test compound was diluted with an assay buffer (50 mM Tris-HCl (pH 7.5), 50 mM KCl, 1 mM DTT, 0.1% BSA) and added to a 384 well plate by 5 μL. […] The mixture was stood in a dark place for 1 hr, and the signal value was measured by Envision (PerkinElmer).

[3] = biological target: T1, RORγt; assay: RORγt binding test using fluorescent-labeled cholesterol (TR-FRET); details: read-out: Binding inhibitory rate of fluorescent-labeled cholesterol to RORγt at test compound 1 μM (%)
Protocol: RORγt Binding Test Using Fluorescent-labeled Cholesterol
The binding activity of the test compound to RORγt was measured by a time resolved fluorescence resonance energy transfer method (TR-FRET) utilizing histidine-tagged RORγt, fluorescent-labeled cholesterol (BODIPY-cholesterol, AVIVA), and terbium-labeled anti-histidine tag antibody (Invitrogen). First, a test compound diluted with an assay buffer (20 mM Tris-HCl (pH 7.5), 100 mM NaCl, 1 mM DTT, 0.1% BSA) was added to a 384 well plate by 3 μL. Then, RORγt diluted with an assay buffer to 240 nM was added by 3 μL, after which fluorescent-labeled cholesterol diluted with the assay buffer to 12 μM was added by 3 μL, and the mixture was stood at room temperature for 20 min. Thereafter, a terbium-labeled anti-histidine tag antibody diluted with the assay buffer to 8 nM was added by 3 μL. The mixture was stood at room temperature for 20 min, and fluorescence intensity (excitation wavelength 320 nm, fluorescence wavelength 520 nm, delay time 100 microseconds) was measured by Envision (PerkinElmer).

[4] = test compound 3 μM, Jurkat cells

SMILES	inhibition at 3 µM ([1]; Jurkat) [%]	inhibition at 1 µM [2] [%]	inhibition at 1 µM [3] [%]	inhibition at 3 µM [1, 4] [%]
COc1ccc2c(c1)CCN(C(=O)c1ccc(=O)[nH]c1)C2C(=O)Nc1ccc([Si](C)(C)C)cc1 (stereo not drawn) [Example 2, 6-methoxy-2-((6-oxo-1,6-dihydropyridin-3-yl)carbonyl)-N-(4-(trimethylsilyl)phenyl)-1,2,3,4-tetrahydroisoquinoline-1-carboxamide]	98.1	80.5	99.7	
COc1ccc2c(c1)CCN(C(=O)c1cc(O)no1)C2C(=O)Nc1ccc([Si](C)(C)C)c(F)c1 (stereo not drawn) [Example 3, N-(3-fluoro-4-(trimethylsilyl)phenyl)-2-((3-hydroxy-1,2-oxazol-5-yl)carbonyl)-6-methoxy-1,2,3,4-tetrahydroisoquinoline-1-carboxamide]	99.6	92.7	101	
COc1ccc2c(c1)CCN(C(=O)c1ccc(=O)[nH]c1)C2C(=O)Nc1ccc([Si](C)(C)C)c(F)c1 (stereo not drawn) [Example 4, N-(3-fluoro-4-(trimethylsilyl)phenyl)-6-methoxy-2-((6-oxo-1,6-dihydropyridin-3-yl)carbonyl)-1,2,3,4-tetrahydroisoquinoline-1-carboxamide]	99.7	81.9	101	
COc1ccc2c(c1)CCN(C(=O)c1ccc(=O)[nH]c1)[C@H]2C(=O)Nc1ccc([Si](C)(C)C)c(F)c1 [Example 8, (1R)-N-(3-fluoro-4-(trimethylsilyl)phenyl)-6-methoxy-2-((6-oxo-1,6-dihydropyridin-3-yl)carbonyl)-1,2,3,4-tetrahydroisoquinoline-1-carboxamide]	101	81.2	102	
COc1ccc2c(c1)CCN(C(=O)c1cc(O)no1)C2C(=O)Nc1ccc(C(C)(C)C)c(F)c1 (stereo not drawn) [Example 9, N-(4-tert-butyl-3-fluorophenyl)-2-((3-hydroxy-1,2-oxazol-5-yl)carbonyl)-6-methoxy-1,2,3,4-tetrahydroisoquinoline-1-carboxamide]		77.3	100	101
COc1ccc2c(c1)CCN(C(=O)c1cc(O)no1)C2C(=O)Nc1ccc(C(C)(C)C)c(Cl)c1 (stereo not drawn) [Example 10, N-(4-tert-butyl-3-chlorophenyl)-2-((3-hydroxy-1,2-oxazol-5-yl)carbonyl)-6-methoxy-1,2,3,4-tetrahydroisoquinoline-1-carboxamide]		43.8	98.9	98.8
COc1ccc2c(c1)CCN(C(=O)c1cc(O)no1)C2C(=O)Nc1cc(F)c2c(c1)CCC2(C)C (stereo not drawn) [Example 11, N-(7-fluoro-1,1-dimethyl-2,3-dihydro-1H-inden-5-yl)-2-((3-hydroxy-1,2-oxazol-5-yl)carbonyl)-6-methoxy-1,2,3,4-tetrahydroisoquinoline-1-carboxamide]		67.7	103	99.7
COc1ccc2c(c1)CCN(C(=O)c1cc(O)no1)C2C(=O)Nc1cc(F)c(C(C)(C)C)c(F)c1 (stereo not drawn) [Example 12, N-(4-tert-butyl-3,5-difluorophenyl)-2-((3-hydroxy-1,2-oxazol-5-yl)carbonyl)-6-methoxy-1,2,3,4-tetrahydroisoquinoline-1-carboxamide]		82.4	103	99.3
COc1ccc2c(c1)CCN(C(=O)Cc1nnc(C)o1)[C@H]2C(=O)Nc1ccc(C(C)(C)C)c(F)c1 [Example 28, (1R)-N-(4-tert-butyl-3-fluorophenyl)-6-methoxy-2-((5-methyl-1,3,4-oxadiazol-2-yl)acetyl)-1,2,3,4-tetrahydroisoquinoline-1-carboxamide]		83.2	102	101
COc1ccc2c(c1)CCN(C(=O)Cn1cnccc1=O)[C@H]2C(=O)Nc1ccc(C(C)(C)C)c(F)c1 [Example 29, (1R)-N-(4-tert-butyl-3-fluorophenyl)-6-methoxy-2-((6-oxopyrimidin-1(6H)-yl)acetyl)-1,2,3,4-tetrahydroisoquinoline-1-carboxamide]		88	102	102
COc1ccc2c(c1)CCN(C(=O)CCO)[C@H]2C(=O)Nc1ccc(C(C)(C)C)c(F)c1 [Example 30, (1R)-N-(4-tert-butyl-3-fluorophenyl)-2-(3-hydroxypropanoyl)-6-methoxy-1,2,3,4-tetrahydroisoquinoline-1-carboxamide]		82	102	99.8
COc1ccc2c(c1)CCN(C(=O)Cc1ccc(OC)nc1)[C@H]2C(=O)Nc1ccc(C(C)(C)C)c(F)c1 [Example 32, (1R)-N-(4-tert-butyl-3-fluorophenyl)-6-methoxy-2-((6-methoxypyridin-3-yl)acetyl)-1,2,3,4-tetrahydroisoquinoline-1-carboxamide]		89.9	101	103
CCOC(=O)C(C)(C)c1ccc(NC(=O)C2c3ccc(OC)cc3CCN2C(=O)c2cc(O)no2)cc1F (stereo not drawn) [Example 37, ethyl 2-(2-fluoro-4-(((2-((3-hydroxy-1,2-oxazol-5-yl)carbonyl)-6-methoxy-1,2,3,4-tetrahydroisoquinolin-1-yl)carbonyl)amino)phenyl)-2-methylpropanoate]		98.3	103	98.6
CCOc1ccc2c(c1)CCN(C(=O)Cc1cc(O)no1)C2C(=O)Nc1ccc(C(C)(C)C)c(F)c1 (stereo not drawn) [Example 54, N-(4-tert-butyl-3-fluorophenyl)-6-ethoxy-2-((3-hydroxy-1,2-oxazol-5-yl)acetyl)-1,2,3,4-tetrahydroisoquinoline-1-carboxamide]		81.9	100	101
CCOc1ccc2c(c1)CCN(C(=O)Cc1cc(O)no1)C2C(=O)Nc1cc(F)c2c(c1)CCC2(C)C (stereo not drawn) [Example 55, 6-ethoxy-N-(7-fluoro-1,1-dimethyl-2,3-dihydro-1H-inden-5-yl)-2-((3-hydroxy-1,2-oxazol-5-yl)acetyl)-1,2,3,4-tetrahydroisoquinoline-1-carboxamide]		73.4	102	100
COc1ccc2c(n1)CCN(C(=O)c1cc(O)no1)[C@H]2C(=O)Nc1ccc(C(C)(C)C)c(F)c1 [Example 77, (5R)-N-(4-tert-butyl-3-fluorophenyl)-6-((3-hydroxy-1,2-oxazol-5-yl)carbonyl)-2-methoxy-5,6,7,8-tetrahydro-1,6-naphthyridine-5-carboxamide]		91	101	100
COc1ccc2c(c1)CCN(C(=O)CC#N)[C@H]2C(=O)Nc1cc(F)c(C(C)(C)C)c(F)c1 [Example 84, (1R)-N-(4-tert-butyl-3,5-difluorophenyl)-2-(cyanoacetyl)-6-methoxy-1,2,3,4-tetrahydroisoquinoline-1-carboxamide]		92	101	100

Source: patent US10053468B2, “Heterocyclic compound” (TAKEDA PHARMACEUTICAL COMPANY LIMITED, priority 2013, dated 2018)
